# Data as given in PubChem BioAssay (NCI).
#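 Cultured in 96-well plates, cells were exposed to test compound for 48 hours across five concentrations. TGI: concentration producing complete growth inhibition.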
# How the values were obtained:
# Assay in all cases: NCI tumour cell line growth inhibition, 48 h
# [1] = system: 786-0 renal
# [2] = system: A498 renal
# [3] = system: A549 NSCLC
# [4] = system: ACHN renal
# [5] = system: CAKI-1 renal
# [6] = system: CCRF-CEM leukemia
# [7] = system: COLO 205 colon
# [8] = system: DLD-1 colon
# [9] = system: DMS 114 small cell lung
# [10] = system: DMS 273 small cell lung
# [11] = system: EKVX NSCLC
# [12] = system: HCC-2998 colon
# [13] = system: HCT-116 colon
# [14] = system: HCT-15 colon
# [15] = system: HL-60(TB) leukemia
# [16] = system: HOP-18 NSCLC
# [17] = system: HOP-62 NSCLC
# [18] = system: HOP-92 NSCLC
# [19] = system: HT29 colon
# [20] = system: IGROV1 ovarian
# [21] = system: KM12 colon
# [22] = system: KM20L2 colon
# [23] = system: LXFL 529 NSCLC
# [24] = system: M14 melanoma
# [25] = system: M19-MEL melanoma
# [26] = system: MALME-3M melanoma
# [27] = system: MOLT-4 leukemia
# [28] = system: NCI-H226 lung
# [29] = system: NCI-H23 lung
# [30] = system: NCI-H460 lung
# [31] = system: NCI-H522 lung
# [32] = system: OVCAR-3 ovarian
# [33] = system: OVCAR-4 ovarian
# [34] = system: OVCAR-5 ovarian
# [35] = system: OVCAR-8 ovarian
# [36] = system: RXF 393 renal
# [37] = system: RXF-631 renal
# [38] = system: SF-268 CNS
# [39] = system: SF-295 CNS
# [40] = system: SF-539 CNS
# [41] = system: SK-MEL-2 melanoma
# [42] = system: SK-MEL-28 melanoma
# [43] = system: SK-MEL-5 melanoma
# [44] = system: SK-OV-3 ovarian
# [45] = system: SN12C renal
# [46] = system: SNB-19 CNS
# [47] = system: SNB-75 CNS
# [48] = system: SNB-78 CNS
# [49] = system: SW-620 colon
# [50] = system: TK-10 renal
# [51] = system: U251 CNS
# [52] = system: UACC-257 melanoma
# [53] = system: UACC-62 melanoma
# [54] = system: UO-31 renal
# [55] = system: XF 498 CNS
# [56] = system: K-562 leukemia
# [57] = system: LOX IMVI melanoma
# [58] = system: RPMI-8226 leukemia
# [59] = system: SR leukemia
structure (smiles),measurement,setting,value
OC(CCNC12CC3CC(CC(C3)C1)C2)c1ccccc1 (centres undefined),TGI,[1],> 100 µM
same,TGI,[2],> 100 µM
same,TGI,[3],> 100 µM
same,TGI,[4],> 100 µM
same,TGI,[5],> 100 µM
same,TGI,[6],> 100 µM
same,TGI,[7],> 100 µM
same,TGI,[8],> 100 µM
same,TGI,[9],> 100 µM
same,TGI,[10],> 100 µM
same,TGI,[11],> 100 µM
same,TGI,[12],> 100 µM
same,TGI,[13],> 100 µM
same,TGI,[14],> 100 µM
same,TGI,[15],> 100 µM
same,TGI,[16],> 100 µM
same,TGI,[17],> 100 µM
same,TGI,[18],> 100 µM
same,TGI,[19],> 100 µM
same,TGI,[20],> 100 µM
same,TGI,[21],> 100 µM
same,TGI,[22],> 100 µM
same,TGI,[23],> 100 µM
same,TGI,[24],> 100 µM
same,TGI,[25],> 100 µM
same,TGI,[26],> 100 µM
same,TGI,[27],> 100 µM
same,TGI,[28],> 100 µM
same,TGI,[29],> 100 µM
same,TGI,[30],> 100 µM
same,TGI,[31],> 100 µM
same,TGI,[32],> 100 µM
same,TGI,[33],> 100 µM
same,TGI,[34],> 100 µM
same,TGI,[35],> 100 µM
same,TGI,[36],> 100 µM
same,TGI,[37],> 100 µM
same,TGI,[38],> 100 µM
same,TGI,[39],> 100 µM
same,TGI,[40],> 100 µM
same,TGI,[41],> 100 µM
same,TGI,[42],> 100 µM
same,TGI,[43],> 100 µM
same,TGI,[44],> 100 µM
same,TGI,[45],> 100 µM
same,TGI,[46],> 100 µM
same,TGI,[47],> 100 µM
same,TGI,[48],> 100 µM
same,TGI,[49],> 100 µM
same,TGI,[50],> 100 µM
same,TGI,[51],> 100 µM
same,TGI,[52],> 100 µM
same,TGI,[53],> 100 µM
same,TGI,[54],> 100 µM
same,TGI,[55],> 100 µM
Cc1ccccc1C1OC(=O)c2ccc3ccccc3c21 (centres undefined),TGI,[1],18.9 µM
same,TGI,[2],8.51 µM
same,TGI,[3],16.6 µM
same,TGI,[4],28.6 µM
same,TGI,[5],88.4 µM
same,TGI,[6],17.6 µM
same,TGI,[7],2.28 µM
same,TGI,[8],16.8 µM
same,TGI,[9],13.3 µM
same,TGI,[10],12.4 µM
same,TGI,[11],17.5 µM
same,TGI,[12],12 µM
same,TGI,[13],7.14 µM
same,TGI,[14],9.44 µM
same,TGI,[15],8.01 µM
same,TGI,[16],25.2 µM
same,TGI,[17],5.35 µM
same,TGI,[18],49.9 µM
same,TGI,[19],> 31.6 µM
same,TGI,[20],> 31.6 µM
same,TGI,[56],19.5 µM
same,TGI,[21],13.7 µM
same,TGI,[22],15.8 µM
same,TGI,[57],7.45 µM
same,TGI,[23],15.1 µM
same,TGI,[24],10.9 µM
same,TGI,[25],11.4 µM
same,TGI,[26],14 µM
same,TGI,[27],7.18 µM
same,TGI,[28],12.2 µM
same,TGI,[29],20.7 µM
same,TGI,[30],12.6 µM
same,TGI,[31],4.89 µM
same,TGI,[32],16.2 µM
same,TGI,[33],19.2 µM
same,TGI,[34],> 31.6 µM
same,TGI,[35],12.8 µM
same,TGI,[58],5.43 µM
same,TGI,[36],6.95 µM
same,TGI,[37],3.23 µM
same,TGI,[38],14.8 µM
same,TGI,[39],> 31.6 µM
same,TGI,[40],13.4 µM
same,TGI,[41],5.98 µM
same,TGI,[42],10.1 µM
same,TGI,[43],13 µM
same,TGI,[44],8.37 µM
same,TGI,[45],18.3 µM
same,TGI,[46],> 91.5 µM
same,TGI,[47],31.3 µM
same,TGI,[48],98.3 µM
same,TGI,[59],7.96 µM
same,TGI,[49],21.7 µM
same,TGI,[50],> 31.6 µM
same,TGI,[51],13.3 µM
same,TGI,[52],12.2 µM
same,TGI,[53],6.97 µM
same,TGI,[54],10.9 µM
same,TGI,[55],9.69 µM
